Source: publication PMC5818615, “Use of HuH6 and other human-derived hepatoma lines for the detection of genotoxins: a new hope for laboratory animals?” (Archives of Toxicology, 2017)
Read-outs that look alike come from different tables or passages of the source.

Tests used:
[1] = test system: SNU-398 cells; conditions: 48 h, control 1.02 ± 0.88
Procedure: (§1) The SCGE experiments were conducted as described in an international guideline (Tice et al. [2000]). Reagents for the assays (lysis solution and alkaline electrophoresis buffer) and agarose-coated slides were prepared according to Collins and Dusinska ([2009]).
(§2) Briefly, cells were sub-cultured in 1.0 ml medium in 24–well tissue-culture plates (Sarstedt Inc., Newton, NC, USA). After 24 h, the media were changed and the cells exposed to different concentrations of the test compounds or to the solvent controls (PBS or DMSO). […] To terminate the treatment, the cells were washed twice with PBS (1.0 ml), trypsinized (100 µl T/E per well, 4 min) and then resuspended in 400 µl culture medium containing FBS. Subsequently, the suspensions were transferred to Eppendorf tubes and centrifuged (200g, 5 min). Cell pellets were resuspended in cold PBS.
(§3) In all experiments, acute toxic effects were determined with a CASY® Cell Counter and Analyzer System (Schärfe-System GmbH, Reutlingen, Germany) (Lindl et al. [2005]). SCGE assays were only performed when the viability of the cultures was ≥ 70% (Koppen et al. [2017]). Per experimental point, two cultures were set up in parallel and from each one slide with two separate gels (30,000 cells/gel) was prepared. After unwinding (40 min, pH > 13) and electrophoresis (30 min, 0.75 V/cm, ~ 300 mA, 4 °C, pH > 13), 50 cells were evaluated per gel (200 cells per experimental point). As an endpoint, we determined the tail intensities (“% DNA in tail”) with a computer-aided system Comet Assay IV (Perceptive Instruments, Bury St Edmunds, UK), which is at present the most widely used parameter (Collins et al. [2008]; Moller [2006]). For each gel, the median of the tail intensity was calculated.

[2] = test system: HepG2 cells; conditions: 48 h
Procedure: as §1, §2, §3

[3] = test system: HuH7 cells; conditions: 48 h, control 1.29 ± 1.30
Procedure: as §1, §2, §3

[4] = test system: PLC/PRF cells; conditions: PLC/PRF, 48 h, control 2.47 ± 2.08
Procedure: as §1, §2, §3

[5] = test system: SNU-449 cells; conditions: 48 h, control 1.20 ± 1.18
Procedure: as §1, §2, §3

[6] = test system: WRL68 cells; conditions: 48 h, control 0.76 ± 0.77
Procedure: as §1, §2, §3

[7] = test system: HCC 1.2 cells; conditions: 48 h
Procedure: as §1, §2, §3

[8] = test system: HepaRG cells; conditions: for % DNA in tail: HepaRG, 48 h, control 2.34 ± 2.92
Procedure: as §1, §2, §3

[9] = test system: human derived liver cell lines
Procedure: as §1, §2, §3

[10] = test system: Hep3B cells; conditions: Hep3B, 48 h, control 0.92 ± 0.58
Procedure: as §1, §2, §3

[11] = test system: SK-Hep1 cells; conditions: 48 h, control 0.59 ± 0.24
Procedure: as §1, §2, §3

[12] = test system: JHH6 cells; conditions: 48 h, control 0.59 ± 0.21
Procedure: as §1, §2, §3

[13] = test system: HuH6 cells; conditions: 48 h
Procedure: as §1, §2, §3

[14] = ref IARC [1993]; cited from earlier work

## Cn1c(N)nc2c3cccnc3ccc21 [IQ, 2-amino-3-methyl-3H-imidazo[4,5-f]quinolone]
[1]; SNU-398, IQ 50.0 µM
  % DNA in tail: 1.42 ± 0.72%
[1]; SNU-398, IQ 100.0 µM
  % DNA in tail: 1.20 ± 0.81%
[2]; HepG2, IQ 50.0 µM, control 2.16 ± 0.54
  % DNA in tail: 1.32 ± 0.91%
[2]; HepG2, IQ 100.0 µM, control 2.16 ± 0.54, starred P ≤ 0.05
  % DNA in tail: 5.38 ± 2.02%
[3]; HuH7, IQ 50.0 µM
  % DNA in tail: 2.16 ± 0.91%
[3]; HuH7, IQ 100.0 µM
  % DNA in tail: 1.11 ± 0.60%
[4]; IQ 50.0 µM
  % DNA in tail: 5.17 ± 4.50%
[4]; IQ 100.0 µM
  % DNA in tail: 2.84 ± 2.65%
[5]; SNU-449, IQ 50.0 µM
  % DNA in tail: 3.67 ± 2.95%
[5]; SNU-449, IQ 100.0 µM
  % DNA in tail: 1.46 ± 1.21%
[6]; WRL68, IQ 50.0 µM
  % DNA in tail: 1.15 ± 1.44%
[6]; WRL68, IQ 100.0 µM
  % DNA in tail: 0.56 ± 0.67%
[7]; HCC 1.2, IQ 50.0 µM, control 2.93 ± 1.40
  % DNA in tail: 1.86 ± 0.44%
[7]; HCC 1.2, IQ 100.0 µM, control 2.93 ± 1.40, starred P ≤ 0.05
  % DNA in tail: 7.29 ± 1.87%
[8]; HepaRG cells
  Result of SCGE experiments (in words): negative results
[8]; IQ 50.0 µM
  % DNA in tail: 2.39 ± 4.10%
[8]; IQ 100.0 µM
  % DNA in tail: 2.38 ± 1.97%
[9]; SCGE experiments without exogenous enzyme activation mix
  Number of the twelve lines sensitive towards the compound: three
[9]; different hepatic lines, in most cases
  Doses required to cause significant effects in SCGE assays: ≥ 100 mM
[10]; IQ 50.0 µM
  % DNA in tail: 0.88 ± 0.71%
[10]; IQ 100.0 µM
  % DNA in tail: 1.75 ± 1.45%
[11]; SK-Hep1, IQ 50.0 µM
  % DNA in tail: 0.62 ± 0.47%
[11]; SK-Hep1, IQ 100.0 µM
  % DNA in tail: 1.43 ± 0.95%
[12]; JHH6, IQ 50.0 µM
  % DNA in tail: 1.29 ± 1.55%
[12]; JHH6, IQ 100.0 µM
  % DNA in tail: 0.93 ± 0.67%
[13]; HuH6, IQ 50.0 µM, control 4.01 ± 1.68
  % DNA in tail: 5.91 ± 3.05%
[13]; HuH6, IQ 100.0 µM, control 4.01 ± 1.68, starred P ≤ 0.05
  % DNA in tail: 10.82 ± 5.71%
[14]
  IARC classification: Causes guanine adducts, clear evidence for carcinogenicity in experiments with rodents IARC: Group 2A
